Paper PMC9502271, “An Investigation of the Anti-Depressive Properties of Phenylpropanoids and Flavonoids in Hemerocallis citrina Baroni” (Molecules, 2022)
Read-outs that look alike come from different tables or passages of the source.

Columns and labels:
[1] = system: BV2 microglial cells; assay: CCK8 cytotoxic activity in BV2 microglial cells; assay type: cell-based; details: compound test concentrations 3.125 to 100 μM, read-out: IC50 Cell Viability
Method: (§1) BV2 microglia cells were purchased from iCell Bioscience Inc. (Shanghai, China). The cells were grown at 37 °C in a humid environment with 5% CO2. In DMEM with 10% fetal bovine serum and 1% penicillin-streptomycin solution, they were maintained alive. The following assays were carried out while the cells were in the exponential growth phase (subcultured 2–3 times).
The cytotoxic activity was assessed using the CCK8 test. In a 96-well plate, BV2 microglial cells (5 × 10^4 cells/well) were placed in each well and incubated for 12 h. After one hour with each substance, LPS (1 μg/mL) was applied to the BV2 microglia cells for an additional 24 h. The CCK8 solution was then incubated with BV2 cells for 1 h at 37 °C. The absorbance at 450 nm was measured using a plate reader (Molecular Devices, San Jose, CA, USA). The cells that had not been treated were assumed to have a 100% optical density.

[2] = system: NO production induced by LPS in BV2 cells; assay: Inhibition of NO production in LPS-induced BV2 microglial cells (Griess reagent); assay type: cell-based; details: for IC50: compound test concentrations 3.125 to 100 μM, mean ± SD (n = 3), read-out: IC50 NO Inhibitory
Method: as §1
To determine how much NO is produced, the literature was consulted. Equal parts of the Griess reagent (1% sulfanilamide and 0.1% N-(1-naphthyl) ethylenediamine dihydrochloride in 2.5% phosphoric acid) were combined with the sample-treated cell culture medium for 5 min at room temperature and in the dark. It was determined that the absorbance was at 540 nm using a microplate reader. The trials were conducted simultaneously in triplicate.

[3] = Mus musculus, BV-2, CCK8, LPS 1 μg/mL 24 h
[4] = Mus musculus, BV-2, LPS-induced BV2 cells

| SMILES | IC50 [1, 3] [µM] | IC50 [2, 4] [µM] | IC50 ([2]; LPS-induced BV2 cells) [µM] | inhibitory effects on NO production in comparison with the positive drug indomethacin ([2]; LPS-induced BV2 cells) | IC50 ([1]; CCK8, LPS 1 μg/mL 24 h) [µM] |
| --- | --- | --- | --- | --- | --- |
| O=C(/C=C/c1ccc(O)cc1)O[C@H]1C[C@@](O)(C(=O)O)C[C@H](O)[C@@H]1O [Compound 11, 5-O-(E)-p-coumaroylquinic acid] | > 100 | > 100 | – | – | – |
| C[C@@H]1O[C@@H](OC[C@H]2O[C@@H](Oc3c(-c4ccc(O)cc4)oc4cc(O)cc(O)c4c3=O)[C@H](O)[C@@H](O)[C@@H]2O)[C@H](O)[C@H](O)[C@H]1O [Compound 35, kaempferol-3-O-α-L-rhamnopyranosyl-(1→6)-β-D-glucopyranoside] | > 100 | > 100 | – | – | – |
| COc1cc(-c2oc3cc(O)cc(O)c3c(=O)c2O[C@@H]2O[C@H](CO[C@@H]3O[C@@H](C)[C@H](O)[C@@H](O)[C@H]3O)[C@H](O)[C@H](O)[C@H]2O[C@@H]2O[C@@H](C)[C@H](O)[C@@H](O)[C@H]2O)ccc1O [Compound 28, isorhamnetin-3-O-α-L-rhamnopyranosyl-(1→2)-[α-L-rhamnopyranosyl-(1→6)-β-D-galactopyranoside]] | > 100 | < 100 | 90.7 ± 10.4 | – | – |
| O=c1c(O[C@@H]2O[C@H](CO)[C@H](O)[C@H](O)[C@H]2O)c(-c2ccc(O)c(O)c2)oc2cc(O)cc(O)c12 [Compound 18, quercetin-3-O-β-D-galactpyranoside] | > 100 | > 100 | – | – | – |
| O=c1c(O[C@@H]2O[C@H](CO)[C@H](O)[C@H](O)[C@H]2O)c(-c2ccc(O)cc2)oc2cc(O)cc(O)c12 [Compound 32, kaempferol-3-O-β-D-galactopyranoside] | > 100 | > 100 | – | – | – |
| O=C(/C=C/c1ccc(O)c(O)c1)O[C@H]1[C@@H](O)C[C@](O)(C(=O)O)C[C@@H]1O [Compound 13, crypto-chlorogenic acid] | > 100 | < 100 | 74.4 ± 6.53 | – | – |
| C[C@@H]1O[C@@H](OC[C@H]2O[C@@H](Oc3c(-c4ccc(O)cc4)oc4cc(O)cc(O)c4c3=O)[C@H](O)[C@@H](O)[C@H]2O)[C@H](O)[C@H](O)[C@H]1O [Compound 34, kaempferol-3-O-α-L-rhamnopyranosyl-(1→6)-β-D-galactpyranoside] | > 100 | > 100 | – | – | – |
| O=c1c(O[C@@H]2O[C@H](CO)[C@@H](O)[C@H](O)[C@H]2O)c(-c2ccc(O)cc2)oc2cc(O)cc(O)c12 [Compound 33, kaempferol-3-O-β-D-glucopyranoside] | > 100 | > 100 | – | – | – |
| C[C@@H]1O[C@@H](OC[C@H]2O[C@@H](Oc3c(-c4ccc(O)c(O)c4)oc4cc(O)cc(O)c4c3=O)[C@H](O[C@@H]3O[C@@H](C)[C@H](O)[C@@H](O)[C@H]3O)[C@@H](O)[C@H]2O)[C@H](O)[C@H](O)[C@H]1O [Compound 23, quercetin-3-O-α-L-rhamnopyranosyl-(1→2)-[α-L-rhamnopyranosyl-(1→6)-β-D-galactpyranoside]] | > 100 | > 100 | – | – | – |
| O=C(C=Cc1ccc(O)cc1)OC1CC2(O)CC(OC2=O)C1O (centres unmarked) [Compound 7, 3-O-(E)-p-coumaroylquinide] | > 100 | – | 94.6 ± 5.62 | – | – |
| COC(=O)[C@@]1(O)C[C@H](OC(=O)/C=C/c2ccc(O)cc2)[C@H](O)[C@@H](O)C1 [Compound 5, 3-O-(E)-p-coumaroylquinic acid methyl ester] | > 100 | < 100 | 95.8 ± 7.18 | – | – |
| O=C(O)/C=C\c1ccc(O)cc1 [Compound 2, (Z)-p-coumaric acid] | > 100 | > 100 | – | – | – |
| O=C(/C=C/c1ccc(O)cc1)O[C@H]1[C@@H](O)C[C@](O)(C(=O)O)C[C@@H]1O [Compound 9, 4-O-(E)-p-coumaroylquinic acid] | > 100 | > 100 | – | – | – |
| O=C(O)/C=C/c1ccc(O)cc1 [Compound 1, (E)-p-coumaric acid] | > 100 | > 100 | – | – | – |
| COc1cc(-c2oc3cc(O)cc(O)c3c(=O)c2O[C@@H]2O[C@H](CO)[C@H](O)[C@H](O)[C@H]2O)ccc1O [Compound 25, isorhamnetin-3-O-β-D-galactopyranoside] | > 100 | – | – | stronger inhibitory effects | – |
| O=C(/C=C/c1ccc(O)c(O)c1)O[C@H]1C[C@@](O)(C(=O)O)C[C@H](O)[C@@H]1O [Compound 12, neochlorogenic acid] | > 100 | > 100 | – | – | – |
| O=C(/C=C/c1ccc(O)c(O)c1)O[C@@H]1C[C@](O)(C(=O)O)C[C@@H](O)[C@H]1O [Compound 14, chlorogenic acid] | > 100 | > 100 | – | – | – |

| SMILES | IC50 [1, 3] [µM] | IC50 [2, 4] [µM] | IC50 ([2]; LPS-induced BV2 cells) [µM] | inhibitory effects on NO production in comparison with the positive drug indomethacin ([2]; LPS-induced BV2 cells) | IC50 ([1]; CCK8, LPS 1 μg/mL 24 h) [µM] |
| --- | --- | --- | --- | --- | --- |
| COc1cc(/C=C/C(=O)O[C@@H]2C[C@@](O)(C(=O)O)C[C@@H](O)[C@@H]2O)ccc1O [Compound 15, 3-O-(E)-feruloylquinic acid] | > 100 | > 100 | – | – | – |
| C[C@@H]1O[C@@H](OC[C@H]2O[C@@H](Oc3c(-c4ccc(O)c(O)c4)oc4cc(O)cc(O)c4c3=O)[C@H](O)[C@@H](O)[C@@H]2O)[C@H](O)[C@H](O)[C@H]1O [Compound 20, quercetin-3-O-rutinoside] | > 100 | > 100 | – | – | – |
| C[C@@H]1O[C@@H](OC[C@H]2O[C@@H](Oc3c(-c4ccc(O)c(O)c4)oc4cc(O)cc(O)c4c3=O)[C@H](O)[C@@H](O)[C@H]2O)[C@H](O)[C@H](O)[C@H]1O [Compound 21, quercetin-3-O-α-L-rhamnopyranosyl-(1→6)-β-D-galactpyranoside] | > 100 | > 100 | – | – | – |
| COC(=O)[C@@]1(O)C[C@H](OC(=O)/C=C\c2ccc(O)cc2)[C@H](O)[C@@H](O)C1 [Compound 6, 3-O-(Z)-p-coumaroylquinic acid methyl ester] | > 100 | > 100 | – | – | – |
| O=c1c(O)c(-c2ccc(O)cc2)oc2cc(O)cc(O)c12 [Compound 30, kaempferol] | > 100 | – | – | stronger inhibitory effects | – |
| COc1cc(-c2oc3cc(O)cc(O)c3c(=O)c2O[C@@H]2O[C@H](CO[C@@H]3O[C@@H](C)[C@H](O)[C@@H](O)[C@H]3O)[C@@H](O)[C@H](O)[C@H]2O[C@@H]2O[C@@H](C)[C@H](O)[C@@H](O)[C@H]2O)ccc1O [Compound 29, isorhamnetin-3-O-α-L-rhamnopyranosyl-(1→2)-[α-L-rhamnopyranosyl-(1→6)-β-D-glucopyranoside]] | > 100 | > 100 | – | – | – |
| O=C(/C=C/c1ccc(O)cc1)O[C@H]1C[C@](O)(C(=O)O)C[C@H](O)[C@H]1O [Compound 3, 3-O-(E)-p-coumaroylquinic acid] | > 100 | < 100 | 78.5 ± 8.23 | – | – |
| O=C(C=Cc1ccc(O)cc1)OC1CC2(O)CC(OC2=O)C1O (centres unmarked) [Compound 8, 3-O-(Z)-p-coumaroylquinide] | – | – | – | stronger inhibitory effects | > 100 |
| COc1cc(-c2oc3cc(O)cc(O)c3c(=O)c2O[C@@H]2O[C@H](CO)[C@@H](O)[C@H](O)[C@H]2O)ccc1O [Compound 26, isorhamnetin-3-O-β-D-glucopyranoside] | > 100 | > 100 | – | – | – |
| O=c1c(O)c(-c2ccc(O)c(O)c2)oc2cc(O)cc(O)c12 [Compound 16, quercetin] | > 100 | – | – | stronger inhibitory effects | – |
| COc1ccc2c(c1)c(CC(=O)O)c(C)n2C(=O)c1ccc(Cl)cc1 [Indomethacin, indomethacin, reference compound] | > 100 | 52.6 ± 4.58 | – | – | – |
| O=c1c(O[C@@H]2O[C@H](CO)[C@@H](O)[C@H](O)[C@H]2O)c(-c2ccc(O)c(O)c2)oc2cc(O)cc(O)c12 [Compound 19, quercetin-3-O-β-D-glucopyranoside] | > 100 | > 100 | – | – | – |
| COc1cc(-c2oc3cc(O)cc(O)c3c(=O)c2O)ccc1O [Compound 24, isorhamnetin] | > 100 | – | – | stronger inhibitory effects | – |
| C[C@@H]1O[C@@H](OC[C@H]2O[C@@H](Oc3c(-c4ccc(O)cc4)oc4cc(O)cc(O)c4c3=O)[C@H](O[C@@H]3O[C@@H](C)[C@H](O)[C@@H](O)[C@H]3O)[C@@H](O)[C@@H]2O)[C@H](O)[C@H](O)[C@H]1O [Compound 37, kaempferol-3-O-[α-L-rhamnopyranosyl-(1→6)]-[α-L-rhamnopyranosyl-(1→2)]-β-D-glucopyranoside] | > 100 | < 100 | 96.1 ± 11.6 | – | – |
| C[C@@H]1O[C@@H](OC[C@H]2O[C@@H](Oc3c(-c4ccc(O)c(O)c4)oc4cc(O)cc(O)c4c3=O)[C@H](O[C@@H]3O[C@@H](C)[C@H](O)[C@@H](O)[C@H]3O)[C@@H](O)[C@@H]2O)[C@H](O)[C@H](O)[C@H]1O [Compound 22, quercetin-3-O-α-L-rhamnopyranosyl-(1→2)-[α-L-rhamnopyranosyl-(1→6)-β-D-glucopyranoside]] | > 100 | > 100 | – | – | – |
| COc1cc(-c2oc3cc(O)cc(O)c3c(=O)c2O[C@@H]2O[C@H](CO[C@@H]3O[C@@H](C)[C@H](O)[C@@H](O)[C@H]3O)[C@@H](O)[C@H](O)[C@H]2O)ccc1O [Compound 27] | > 100 | > 100 | – | – | – |
